Assay [1] relates to ES-derived cardiomyocytes. The assay can be described thus: Isoproterenol effect on growth of ES-derived cardiomyocytes co-expressing p193dn and p53dn. In kind it is cell-based. Particulars: cells with MHC-p193dn and MHC-p53dn, isoproterenol 1 μM mg/ml for 58 days, vs. absence. From the text:
It follows then that if the p193 and p53 pathways are blocked, hypertrophic stimuli might result in direct cell cycle activity. To test this, undifferentiated ES cells were transfected with the MHC-neor/pGK-hygror transgene in combination with both the MHC-p193dn and MHC-p53dn transgenes. Transfected cells were enriched by virtue of their resistance to hygromycin, and then induced to differentiate. The ES-derived cardiomyocytes were then enriched by virtue of their resistance to G418. Cardiomyocyte growth was then compared in these cultures in the presence vs. absence of exogenous isoproterenol (1 μM mg/ml) for 58 days.

Another assay concerns the target T1, SV40 T-Ag (Simian virus 40, UniProt P03070).
T1 construct: construct designated CMV-T-Ag; expressed in transfected cells; host or cells: NIH-3T3
The assay can be described thus: p193/T-Ag binding by immune precipitation. Particulars: radiolabeled in vitro translated p193 mixed with recombinant T-Ag. On the procedure:
A T-Ag cDNA was subcloned into pcDNA3.1 expression vector (which lacks the epitope tag; construct designated CMV-T-Ag). For IP/Western analyses, NIH-3T3 cells (ATCC, Rockville Md.) were co-transfected with […] and CMV-p193myc using the calcium phosphate approach (Sambrook, J., Fritsch, E. F., and Maniatis, T. (1989) Molecular cloning, Cold Spring Harbor Laboratory Press, Cold Spring Harbor, N.Y.). Protein (1 mg) prepared from the transfected cells was reacted with an anti-T-Ag (PAb419), an anti-myc (9E10, Santa Cruz Biotech.), or an IgG subtype-matched non-specific antibody (anti-GST, Pharmacia), and the resulting immune complexes were subjected to Western blot analysis. 100 μg of total protein from non-transfected and transfected cells were included as controls. The blots were probed with an anti-myc (9E10) or anti-T-Ag (PAb416) antibody, and signal was developed using the ECL method. […] Immune complex was then visualized via autoradiography (p193) or Western blotting (T-Ag) as described above.

T1 sequence (Q8VE73 whole entry): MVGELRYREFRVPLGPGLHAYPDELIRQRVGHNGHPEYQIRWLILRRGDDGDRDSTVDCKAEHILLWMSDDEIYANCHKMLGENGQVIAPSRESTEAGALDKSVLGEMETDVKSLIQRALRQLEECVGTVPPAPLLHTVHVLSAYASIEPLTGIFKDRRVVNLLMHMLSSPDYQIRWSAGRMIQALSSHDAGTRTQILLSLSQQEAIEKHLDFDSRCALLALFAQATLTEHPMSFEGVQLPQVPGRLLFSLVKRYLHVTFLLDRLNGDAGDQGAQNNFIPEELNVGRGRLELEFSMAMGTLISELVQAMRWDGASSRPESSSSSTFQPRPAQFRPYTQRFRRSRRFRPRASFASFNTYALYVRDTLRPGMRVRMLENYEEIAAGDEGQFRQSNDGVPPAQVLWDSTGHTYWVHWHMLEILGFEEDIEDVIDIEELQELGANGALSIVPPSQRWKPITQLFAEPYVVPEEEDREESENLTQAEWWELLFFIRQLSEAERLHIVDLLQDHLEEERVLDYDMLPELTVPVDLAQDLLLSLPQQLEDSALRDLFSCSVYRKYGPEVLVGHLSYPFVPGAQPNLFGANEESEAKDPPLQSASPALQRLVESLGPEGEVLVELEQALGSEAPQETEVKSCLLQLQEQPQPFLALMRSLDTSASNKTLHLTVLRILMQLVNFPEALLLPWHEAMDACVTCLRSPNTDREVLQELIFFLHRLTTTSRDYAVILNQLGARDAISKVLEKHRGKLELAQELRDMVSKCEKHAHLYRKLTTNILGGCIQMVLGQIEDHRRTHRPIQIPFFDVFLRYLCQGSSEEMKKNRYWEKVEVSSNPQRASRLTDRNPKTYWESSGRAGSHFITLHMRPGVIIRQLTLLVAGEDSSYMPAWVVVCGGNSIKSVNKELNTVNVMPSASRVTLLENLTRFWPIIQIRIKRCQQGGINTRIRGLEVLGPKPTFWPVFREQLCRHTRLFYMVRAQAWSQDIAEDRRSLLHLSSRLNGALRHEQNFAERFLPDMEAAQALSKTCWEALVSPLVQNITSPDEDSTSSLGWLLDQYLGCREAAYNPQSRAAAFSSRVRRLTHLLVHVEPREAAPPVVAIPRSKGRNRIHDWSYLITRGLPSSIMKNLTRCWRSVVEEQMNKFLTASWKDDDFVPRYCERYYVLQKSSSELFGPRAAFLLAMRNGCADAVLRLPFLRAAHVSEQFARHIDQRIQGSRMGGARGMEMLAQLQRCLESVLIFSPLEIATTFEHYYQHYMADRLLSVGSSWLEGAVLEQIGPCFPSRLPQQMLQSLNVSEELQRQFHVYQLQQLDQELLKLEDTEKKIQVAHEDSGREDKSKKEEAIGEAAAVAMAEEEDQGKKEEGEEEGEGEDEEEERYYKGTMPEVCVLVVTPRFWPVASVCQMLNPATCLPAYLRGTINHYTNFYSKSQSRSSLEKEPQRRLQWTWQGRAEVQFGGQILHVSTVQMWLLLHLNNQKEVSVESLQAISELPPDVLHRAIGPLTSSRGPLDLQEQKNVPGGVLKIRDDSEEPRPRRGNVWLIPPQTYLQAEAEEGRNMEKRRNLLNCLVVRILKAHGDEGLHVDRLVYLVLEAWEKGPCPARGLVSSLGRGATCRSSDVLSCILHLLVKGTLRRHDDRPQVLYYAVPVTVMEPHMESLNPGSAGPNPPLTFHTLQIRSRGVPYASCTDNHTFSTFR
T1 sequence (P03070 whole entry): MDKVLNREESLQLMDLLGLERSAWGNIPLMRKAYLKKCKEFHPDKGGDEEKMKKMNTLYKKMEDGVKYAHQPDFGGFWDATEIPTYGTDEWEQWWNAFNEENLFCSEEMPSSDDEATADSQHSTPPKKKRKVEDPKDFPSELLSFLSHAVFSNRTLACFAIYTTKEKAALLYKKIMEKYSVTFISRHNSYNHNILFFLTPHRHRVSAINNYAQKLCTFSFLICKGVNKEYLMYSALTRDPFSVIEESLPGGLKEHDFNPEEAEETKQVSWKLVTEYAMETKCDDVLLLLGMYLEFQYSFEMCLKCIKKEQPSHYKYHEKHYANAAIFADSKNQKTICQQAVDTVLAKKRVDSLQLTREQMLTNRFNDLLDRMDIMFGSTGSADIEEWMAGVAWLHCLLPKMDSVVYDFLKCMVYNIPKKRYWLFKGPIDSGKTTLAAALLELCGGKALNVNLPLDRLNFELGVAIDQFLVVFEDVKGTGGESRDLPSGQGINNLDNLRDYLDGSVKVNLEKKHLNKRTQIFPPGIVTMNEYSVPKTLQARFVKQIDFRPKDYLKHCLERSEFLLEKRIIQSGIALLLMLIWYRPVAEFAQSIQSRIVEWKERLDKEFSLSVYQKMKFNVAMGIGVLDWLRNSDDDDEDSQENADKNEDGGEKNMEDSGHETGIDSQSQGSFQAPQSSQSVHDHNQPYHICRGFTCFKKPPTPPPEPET

On to `CC(C)NCC(O)c1ccc(O)c(O)c1` (centres unmarked) [isoproterenol], for which the cardiomyocyte colony size result in assay [1] is given as “Markedly enhanced cardiomyocyte colony size”.

On to “p193: apoptosis associated, T-Ag binding protein of 1689 amino acid residues (mouse, SEQ. I.D. NO. 2); here in vitro translated”, for which the “binding of in vitro translated protein to recombinant T-Ag (IP)” value with SV40 T-Ag is “present in immune complex generated with anti-T-Ag antibody”.

(Values after patent US20030073236A1, “p193 proteins and nucleic acids, and uses thereof” (priority 1999, published 2003).)
